Test results from publication PMC10837130, “ATP-dependent conformational dynamics in a photoactivated adenylate cyclase revealed by fluorescence spectroscopy and small-angle X-ray scattering” (Communications Biology, 2024).
Blank lines part the entries; values can stand above or below the compound they belong to.

Legend:
Assay type in all cases: binding
[1] = target: T1, OaPAC (photoactivated adenylate cyclase) (Oxynema acuminatum, UniProt K9TLZ5); assay: ITC (also nanoDSF, SAXS titration, CD); set-up: gene Oscil6304_3613; Full-length OaPAC (366 aa, homodimer), dark-adapted state
T1 sequence (K9TLZ5 1-366): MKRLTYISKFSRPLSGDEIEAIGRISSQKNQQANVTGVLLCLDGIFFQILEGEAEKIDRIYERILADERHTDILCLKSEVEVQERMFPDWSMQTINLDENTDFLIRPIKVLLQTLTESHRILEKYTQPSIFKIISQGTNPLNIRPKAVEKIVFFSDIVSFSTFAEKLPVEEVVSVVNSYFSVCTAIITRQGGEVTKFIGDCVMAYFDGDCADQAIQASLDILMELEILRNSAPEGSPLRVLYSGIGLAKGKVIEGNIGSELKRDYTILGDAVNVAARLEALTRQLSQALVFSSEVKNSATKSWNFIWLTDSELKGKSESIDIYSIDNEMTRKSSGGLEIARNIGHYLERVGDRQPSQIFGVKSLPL

[2] = target: T1, OaPAC (photoactivated adenylate cyclase); assay: ITC (also nanoDSF, DSC, flavin-emission thermal shift, SAXS); set-up: gene Oscil6304_3613; Full-length OaPAC (366 aa, homodimer), dark-adapted state
[3] = target: T1, OaPAC (photoactivated adenylate cyclase); assay: steady-state fluorescence anisotropy; stopped-flow fluorescence (KD […]); set-up: gene Oscil6304_3613; Full-length OaPAC (366 aa, homodimer)

SMILES: Nc1ncnc2c1ncn2[C@@H]1O[C@H](COP(=O)(O)OP(=O)(O)OP(=O)(O)O)[C@@H](O)[C@H]1O [ATP]
- Kd [1]: 3.24 ± 1.9 µM

SMILES: Nc1ncnc2c1ncn2[C@@H]1O[C@H](COP(=O)(O)CP(=O)(O)OP(=O)(O)O)[C@@H](O)[C@H]1O [ApCpp, Adenosine-5’-[(α,β)-methyleno]triphosphate]
- Kd [2]: 5.92 ± 5.06 µM

- Kd [3]: 2.25 ± 0.4 µM
SMILES: CNc1ccccc1C(=O)O[C@H]1[C@@H](O)[C@H](n2cnc3c(N)ncnc32)O[C@@H]1CO[P@@](=O)(O)O[P@](=O)(O)OP(=O)(O)O [mantATP]
